The values that follow come from patent publication US11793823B2, “Compounds and pharmaceutical uses thereof” (SyneuRx International (Taiwan) Corp., priority 2020, dated 2023).

Like-named read-outs stand apart in the source and are kept apart here.

One assay deals with SARS-CoV-2 3CLPro (Severe acute respiratory syndrome coronavirus 2 (2019-nCoV) (SARS-CoV-2), UniProt P0DTD1). The assay can be described thus: biochemical.
Assay [1] concerns the target human D-amino acid oxidase (hDAAO) (Homo sapiens (Human), UniProt P14920). In words: In vitro human D-amino acid oxidase (hDAAO) activity, D-Serine/Amplex Red fluorescence. The class given is biochemical. The conditions noted are these: D-Serine substrate, 20 min. As to the method:
The hDAAO inhibitory activities were measured by using D-Serine as a substrate to produce H2O2. The produced H2O2 would be oxidized by peroxidase, and the produced free radicals would further react with Amplex Red reagent to emit fluorescence. The intensity of fluorescence at 590 nm would be measured to represent the activity of hDAAO. All compounds were dissolved in DMSO. Each compound was diluted with DMSO in 3-fold serial dilution to create a dose response curve. Each sample was added in triplicate, 1 µL/well, into 96-well black plates. Positive control wells were added with 1 μL of DMSO. Then 49 μL of assay buffer (100 mM Tris-HCl, pH 8.5) containing 1.2 ng/mL hDAAO, 900 nM FAD, 0.2 units/mL HRP, and 100 μM Amplex Red was added to each well of the plate using a multichannel pipette. Next, 50 μL of 100 mM D-Serine in assay buffer was added. The reaction plates were then incubated in the dark at room temperature. The fluorescence readout was detected at 0 and 20 mins by Molecular Device Gemini EM fluorescence reader using the following settings: excitation filter 530 nm, and emission filter 590 nm. The percentage of inhibition values for each well was calculated with the following equation: The percentage of inhibition=(fluorescence sample, 20 min−fluorescence sample, 0 min)/(fluorescence DMSO, 20 min−fluorescence DMSO, 0 min)×100%
The nonlinear curve fitting model in GraphPad Prism was used to calculate IC50 value for each compound.

The mark [2] stands for this setting: final DMSO concentration 2%, read-out: IC50.
[3] abbreviates: final DMSO concentration 2%, read-out: IC50 (μg/mL) (converted).

human D-amino acid oxidase (hDAAO), sequence (P14920 whole entry): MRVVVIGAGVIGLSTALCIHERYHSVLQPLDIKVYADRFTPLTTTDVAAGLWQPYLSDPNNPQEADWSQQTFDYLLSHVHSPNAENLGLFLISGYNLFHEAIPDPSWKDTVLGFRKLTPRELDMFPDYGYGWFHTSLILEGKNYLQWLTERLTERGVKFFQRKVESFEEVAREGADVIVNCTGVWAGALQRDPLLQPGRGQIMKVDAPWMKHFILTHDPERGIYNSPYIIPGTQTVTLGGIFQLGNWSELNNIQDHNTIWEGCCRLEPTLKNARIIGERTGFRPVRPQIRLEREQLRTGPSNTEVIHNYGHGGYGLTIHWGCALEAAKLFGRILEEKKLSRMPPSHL

Take `O=C(CC1CCCCC1)Oc1cc(C(=O)Oc2cc(C(=O)Oc3cc(C(=O)Oc4cc(C(=O)Oc5cc(C(=O)O)cc(O)c5O)cc(O)c4O)cc(O)c3O)cc(O)c2O)cc(O)c1O` [Compound 80, 3-((3-((3-((3-((3-(2-cyclohexylacetoxy)-4,5-dihydroxybenzoyl)oxy)-4,5-dihydroxybenzoyl)oxy)-4,5-dihydroxybenzoyl)oxy)-4,5-dihydroxybenzoyl)oxy)-4,5-dihydroxybenzoic acid]: the results for the IC50 (on SARS-CoV-2 3CLPro (setting [2]); at SARS-CoV-2 3CLPro (setting [3]); in assay [1]) were more than 62500 nM, more than 62500 nM and 58 nM, respectively.
As for `O=C(O)c1cc(O)c(O)c(OC(=O)c2cc(O)c(O)c(OC(=O)c3cc(O)c(O)c(OC(=O)c4cc(O)c(O)c(OC(=O)c5cc(O)c(O)c(OC(=O)c6ccccc6)c5)c4)c3)c2)c1` [Compound 77, 3-((3-((3-((3-((3-(benzoyloxy)-4,5-dihydroxybenzoyl)oxy)-4,5-dihydroxybenzoyl)oxy)-4,5-dihydroxybenzoyl)oxy)-4,5-dihydroxybenzoyl)oxy)-4,5-dihydroxybenzoic acid], the IC50 at SARS-CoV-2 3CLPro (final DMSO concentration 0.4%, read-out: IC50) was 4330 nM; on SARS-CoV-2 3CLPro (final DMSO concentration 0.4%, read-out: IC50 (μg/mL) (converted)), 4330 nM; in assay [1] it was 72 nM.
As to `O=C(Oc1ccccc1)c1cc(O)c(O)c(OC(=O)c2cc(O)c(O)c(OC(=O)c3cc(O)c(O)c(OC(=O)c4cc(O)c(O)c(OC(=O)c5cc(O)c(O)c(OC(=O)c6ccccc6)c5)c4)c3)c2)c1` [Compound 85, 5-((5-((5-((2,3-dihydroxy-5-(phenoxycarbonyl)phenoxy)carbonyl)-2,3-dihydroxyphenoxy)carbonyl)-2,3-dihydroxyphenoxy)carbonyl)-2,3-dihydroxyphenyl 3-(benzoyloxy)-4,5-dihydroxybenzoate], the IC50 on SARS-CoV-2 3CLPro (setting [2]) is 2370 nM; on SARS-CoV-2 3CLPro (setting [3]), 2370 nM; in assay [1] it was 31 nM.
As to `O=C(OCc1cc(CCc2ccc(F)cc2)n[nH]1)c1cc(O)c(O)c(OC(=O)c2cc(O)c(O)c(OC(=O)c3cc(O)c(O)c(OC(=O)c4cc(O)c(O)c(OC(=O)c5cc(O)c(O)c(O)c5)c4)c3)c2)c1` [Compound 92, 5-((5-((5-((5-(((3-(4-fluorophenethyl)-1H-pyrazol-5-yl)methoxy)carbonyl)-2,3-dihydroxyphenoxy)carbonyl)-2,3-dihydroxyphenoxy)carbonyl)-2,3-dihydroxyphenoxy)carbonyl)-2,3-dihydroxyphenyl 3,4,5-trihydroxybenzoate], the IC50 on SARS-CoV-2 3CLPro (setting [2]) is 2420 nM; at SARS-CoV-2 3CLPro (setting [3]), 2420 nM; in assay [1], 23 nM.
Consider `O=C(OC[C@H]1O[C@H](OC(=O)c2cc(O)c(O)c(OC(=O)c3cc(O)c(O)c(OC(=O)c4cc(O)c(O)c(OC(=O)c5cc(O)c(O)c(OC(=O)c6cc(O)c(O)c(O)c6)c5)c4)c3)c2)[C@H](OC(=O)c2cc(O)c(O)c(OC(=O)c3cc(O)c(O)c(OC(=O)c4cc(O)c(O)c(OC(=O)c5cc(O)c(O)c(OC(=O)c6cc(O)c(O)c(O)c6)c5)c4)c3)c2)[C@@H]1OC(=O)c1cc(O)c(O)c(OC(=O)c2cc(O)c(O)c(OC(=O)c3cc(O)c(O)c(OC(=O)c4cc(O)c(O)c(OC(=O)c5cc(O)c(O)c(O)c5)c4)c3)c2)c1)c1cc(O)c(O)c(OC(=O)c2cc(O)c(O)c(OC(=O)c3cc(O)c(O)c(OC(=O)c4cc(O)c(O)c(OC(=O)c5cc(O)c(O)c(O)c5)c4)c3)c2)c1` [Compound 140, (2R,3R,4R,5R)-5-(((3-((3-((3-((3,4-dihydroxy-5-((3,4,5-trihydroxybenzoyl)oxy)benzoyl)oxy)-4,5-dihydroxybenzoyl)oxy)-4,5-dihydroxybenzoyl)oxy)-4,5-dihydroxybenzoyl)oxy)methyl)tetrahydrofuran-2,3,4-triyl tris(3-((3-((3-((3,4-dihydroxy-5-((3,4,5-trihydroxybenzoyl)oxy)benzoyl)oxy)-4,5-dihydroxybenzoyl)oxy)-4,5-dihydroxybenzoyl)oxy)-4,5-dihydroxybenzoate)], for which the IC50 in assay [1] is 3 nM.
Same read-out and setting: to `O=C(O)c1cc(O)c(O)c(OC(=O)c2cc(O)c(O)c(OC(=O)c3cc(O)c(O)c(OC(=O)c4cc(O)c(O)c(OC(=O)c5cc(O)c(O)c(OC(=O)c6cc(CCc7ccccc7)n[nH]6)c5)c4)c3)c2)c1` [Compound 34, 3-((3-((3-((3-((3,4-dihydroxy-5-((3-phenethyl-1H-pyrazole-5-carbonyl)oxy)benzoyl)oxy)-4,5-dihydroxybenzoyl)oxy)-4,5-dihydroxybenzoyl)oxy)-4,5-dihydroxybenzoyl)oxy)-4,5-dihydroxybenzoic acid] belongs 68 nM.
